Columns and labels:
[1] = PO 24 Hr. CF TPC decrease; assay type: in vivo; conditions: dose 0.2 mg/kg
From the text: Administering sulfonic acid-containing compounds that bind to a TR to animals can result in changes in lipids, including hepatic and/or plasma cholesterol levels; changes in lipoprotein levels including LDL-cholesterol, lipoprotein a (Lp(a)); changes in hepatic glycogen levels; and changes in energy expenditure as measured by changes in oxygen consumption and in some cases animal weight. For example, the effect on cholesterol may be determined using cholesterol fed animals such as normal rats and hamsters, or TRα^−/− knockout mice. Cholesterol may be measured using standard tests. Hepatic glycogen levels may be determined from livers isolated from treated animals. Changes in energy expenditure may be monitored by measuring changes in oxygen consumption (MVO2). Varieties of methods are well described in the literature and include measurement in the whole animal using Oxymax chambers (U.S. Pat. No. 6,441,015). Livers from treated rats can also be evaluated (Fernandez et al., Toxicol. Lett. 69(2):205-10 (1993)) as well as isolated mitochondria from liver (Carreras et al., Am. J. Physiol. Heart Circ. Physiol. 281(6):H2282-8 (2001)). Hepatocytes from treated rats can also be evaluated (Ismail-Beigi F et al., J Gen Physiol. 73(3):369-83 (1979)).

[2] = target: T1, human thyroid hormone receptor TRβ (TRβ1) (Homo sapiens, UniProt P10828); assay: Receptor binding, TRβ (125I-T3 displacement / SPA); conditions: for Ratio: TRα Kd / TRβ Kd
T1 construct: made in house; host or cells: Sf9 insect cells (baculovirus), crude lysate
T1 sequence (P10828 1-461): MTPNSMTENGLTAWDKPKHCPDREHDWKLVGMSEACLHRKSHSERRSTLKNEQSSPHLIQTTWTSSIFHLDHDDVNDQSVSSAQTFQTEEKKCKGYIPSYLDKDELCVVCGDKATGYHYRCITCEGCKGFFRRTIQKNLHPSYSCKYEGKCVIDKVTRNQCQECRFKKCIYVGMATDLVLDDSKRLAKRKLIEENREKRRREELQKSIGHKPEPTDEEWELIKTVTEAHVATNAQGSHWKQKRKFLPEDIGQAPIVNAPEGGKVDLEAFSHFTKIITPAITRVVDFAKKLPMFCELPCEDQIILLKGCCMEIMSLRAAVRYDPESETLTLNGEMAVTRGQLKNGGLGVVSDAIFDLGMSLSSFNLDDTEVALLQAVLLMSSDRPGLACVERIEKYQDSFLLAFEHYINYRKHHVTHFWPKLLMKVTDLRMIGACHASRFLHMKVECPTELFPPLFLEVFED
T1 sequence (P19793 1-462 partner): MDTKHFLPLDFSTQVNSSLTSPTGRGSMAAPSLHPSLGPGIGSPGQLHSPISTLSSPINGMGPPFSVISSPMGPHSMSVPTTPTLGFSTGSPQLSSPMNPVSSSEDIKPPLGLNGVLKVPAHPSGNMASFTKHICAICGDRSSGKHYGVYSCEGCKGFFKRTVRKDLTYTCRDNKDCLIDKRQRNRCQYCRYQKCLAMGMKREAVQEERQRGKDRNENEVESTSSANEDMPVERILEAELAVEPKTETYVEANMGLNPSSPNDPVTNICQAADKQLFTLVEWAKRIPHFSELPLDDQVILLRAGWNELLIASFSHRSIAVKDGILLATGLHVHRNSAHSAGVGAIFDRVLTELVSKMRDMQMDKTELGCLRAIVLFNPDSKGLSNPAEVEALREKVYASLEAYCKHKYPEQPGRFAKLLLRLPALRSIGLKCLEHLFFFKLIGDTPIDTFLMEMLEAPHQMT
Protocol: (§1) Methods: Baculoviruses expressing TRα1, TRβ1 and RXRα are generated using cDNA and other reagents from Invitrogen (Carlsbad, Calif.). To produce TR/RXR heterodimer proteins, the sf9 insect cells are first grown to a density of 15×10^5 cells/mL. TRα1 or TRβ1 and RXRα baculovirus stocks are added to the cell culture with a ratio of 1 to 1 (multiplicity of infection=10). The cells are harvested three days after the infection. […] The bound ^125I-T3 is counted with a scintillation counter.
(§2) Binding of compounds to either the TRα1 or TRβ1 are also performed by means of scintillation proximity assays (SPA). The SPA assay, a common method used for the quantitation of receptor-ligand equilibria, makes use of special beads coated with a scintillant and a capture molecule, copper, which binds to the histidine-tagged α or β receptor.

[3] = target: T2, human thyroid hormone receptor TRα (TRα1) (Homo sapiens, UniProt P10827); assay: Receptor binding, TRα (125I-T3 displacement / SPA)
T2 construct: made in house; host or cells: Sf9 insect cells (baculovirus), crude lysate
T2 sequence (P10827 1-410 isoform P10827-2): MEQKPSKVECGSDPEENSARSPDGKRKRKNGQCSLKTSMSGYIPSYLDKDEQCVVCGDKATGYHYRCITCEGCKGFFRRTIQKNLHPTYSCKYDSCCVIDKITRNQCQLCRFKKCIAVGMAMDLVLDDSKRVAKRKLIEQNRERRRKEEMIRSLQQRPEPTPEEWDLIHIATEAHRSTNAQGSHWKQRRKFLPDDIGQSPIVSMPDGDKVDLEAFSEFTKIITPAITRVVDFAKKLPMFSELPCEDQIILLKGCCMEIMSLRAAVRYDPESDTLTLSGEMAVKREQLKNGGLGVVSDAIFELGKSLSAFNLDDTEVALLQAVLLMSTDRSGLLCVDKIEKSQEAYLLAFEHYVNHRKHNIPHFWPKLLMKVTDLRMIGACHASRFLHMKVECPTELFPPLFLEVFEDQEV
T2 sequence (P19793 1-462 partner): T1 sequence (P19793 1-462 partner)
Protocol: as §1, §2

Compound	PO 24 Hr. CF TPC Dec (d % of Cont) [1]	Kd [2] [nM]	Ratio [2]	Kd [3] [nM]
3,5-dimethyl-4-(4′-hydroxy-3′-iso-propylbenzyl)phenyl-methanesulfonic acid [Compound 2]	−42 d % of Cont	0.4	2.8	1.1
Cc1cc(CS(=O)(=O)O)cc(C)c1Cc1ccc(O)c(C(C)C)c1 [Compound 1]	−45 d % of Cont	0.7	17.1	12

Reference: patent US20120046364A1, “Novel Sulfonic Acid-Containing Thyromimetics, and Methods for Their Use” (METABASIS THERAPEUTICS, INC., priority 2009, published 2012)
